Reference: patent US9592294B2, “Polyalkoxylated alcohols as excipients for pharmaceutical compositions” (Dow Global Technologies LLC, priority 2013, dated 2017)

Columns and labels:
[1] = Turbidity of wet-milled reference drug suspensions without excipient; assay type: physicochemical; details: 26 mg/L Probucol, assuming linear relationship between undissolved drug and turbidity
Procedure: Moreover, wet-milled drug suspensions were analyzed as reference samples to determine the turbidity of the drugs in the absence of excipients. […] 78.6 g of yttrium-stabilized zirconia grinding beads (YTZ from Tosoh Corp., diameter: 0.5 mm) were provided in a 50 mL plastic bottle and 10.0 g deionized water and 0.54 g of the respective drug were added. In the case of Probucol, a dispersant, Daxad 19LS (from Hampshire Chem. Corp.), was added in an amount corresponding to 1 wt. % of the mass of Probucol to counteract coating of the milling beads by the drug. The resulting mixture was placed on a rotating ball mill for 24 h. Subsequently 11.06 g of deionized water were added, the suspension was shaken extensively and then separated from the milling beads. An aliquot of 0.20 g of this suspension was further diluted with 49.80 g of deionized water to yield a suspension having a nominal drug concentration of 0.01 wt. %, which was then analyzed for its turbidity using a Nepheloskan Ascent instrument from ThermoLabsystem. […] Table 5 summarizes the measured turbidity of the wet milled reference drug suspensions along with the average particle size of the suspended drug particles measured using a 90 Plus Particle Size Analyzer instrument from Brookhaven Instruments Corp. and literature values for the aqueous solubility of the drugs.

[2] = phosphate buffer pH 7.0, terpene alcohol ethoxylates 20 wt. %, versus buffer alone; cited from earlier work

Row | Turbidity calculated for a Probucol suspension [1] | SMILES | Increase of saturation drug concentration (factor) [2]
1 | ~24 RNU | CC(C)(Sc1cc(C(C)(C)C)c(O)c(C(C)(C)C)c1)Sc1cc(C(C)(C)C)c(O)c(C(C)(C)C)c1 [Probucol] | 
2 |  | Nc1ccc(S(=O)(=O)Nc2nccs2)cc1 [sulfathiazole] | about 14
